# Experimental data reported in patent publication US9469650B2, “Melampomagnolide B derivatives” (BOARD OF TRUSTEES OF THE UNIVERSITY OF ARKANSAS, priority 2013, dated 2016).
# Like-named read-outs stand apart in the source and are kept apart here.
# Key:
# [1] = tested on: M9 ENL cells; experiment: antileukemic activity, cell viability; conditions: M9 ENL cell line
# Procedure: Carbamate and carbonate derivatives of MMB were also screened for activity against M9 ENL cells at concentrations of 5, 10 and 20 μM (FIG. 10). […] Additionally, succinic amide derivatives of MMB were screened for activity against M9 ENL cells at concentrations of 5, 10 and 20 μM (FIG. 11).
# [2] = tested on: AML 123009 primary isolate; experiment: antileukemic activity, cell viability
# [3] = tested on: AML 100510 primary isolate; experiment: antileukemic activity, cell viability
# [4] = tested on: AML 052308 cells
# Source text: (§1) Derivatives were screened for antileukemic activity against AML cells in culture (See FIGS. 1-7).
# [5] = tested on: CCRF-CEM; conditions: values obtained from NCI database; cited from earlier work
# [6] = tested on: HL-60(TB); conditions: values obtained from NCI database; cited from earlier work
# [7] = tested on: K-562; conditions: values obtained from NCI database; cited from earlier work
# [8] = tested on: MOLT-4; conditions: values obtained from NCI database; cited from earlier work
# [9] = tested on: HOP-92; conditions: values obtained from NCI database; cited from earlier work
# [10] = tested on: NCI-H522; conditions: values obtained from NCI database; cited from earlier work
# [11] = tested on: COLO 205; conditions: values obtained from NCI database; cited from earlier work
# [12] = tested on: HCT-116; conditions: values obtained from NCI database; cited from earlier work
# [13] = tested on: SW-620; conditions: values obtained from NCI database; cited from earlier work
# [14] = tested on: SF-539; conditions: values obtained from NCI database; cited from earlier work
# [15] = tested on: LOX IMVI; conditions: values obtained from NCI database; cited from earlier work
# [16] = tested on: M14; conditions: values obtained from NCI database; cited from earlier work
# [17] = tested on: MDA-MB-435; conditions: values obtained from NCI database; cited from earlier work
# [18] = tested on: IGROV1; conditions: values obtained from NCI database; cited from earlier work
# [19] = tested on: OVCAR-3; conditions: values obtained from NCI database; cited from earlier work
# [20] = tested on: ACHN; conditions: values obtained from NCI database; cited from earlier work
# [21] = tested on: CAKI-1; conditions: values obtained from NCI database; cited from earlier work
# [22] = tested on: RXF 393; conditions: values obtained from NCI database; cited from earlier work
# [23] = tested on: TK-10; conditions: values obtained from NCI database; cited from earlier work
# [24] = tested on: DU-145; conditions: values obtained from NCI database; cited from earlier work
# [25] = tested on: MCF7; conditions: values obtained from NCI database; cited from earlier work
# [26] = tested on: BT-549; conditions: values obtained from NCI database; cited from earlier work
# [27] = tested on: T-47D; conditions: values obtained from NCI database; cited from earlier work
# [28] = tested on: RPMI-8226; conditions: values obtained from NCI database; cited from earlier work
# [29] = tested on: panel of 60 human tumor cell lines; experiment: panel of 60 human tumor cell lines, whole panel or sub-panel (single concentration screen, summaries); type: cell-based; conditions: range over 6a and 6e
# [30] = hydrolytic stability in human plasma; type: in vitro ADME
# [31] = tested on: HL-60(TB); experiment: cells; conditions: Homo sapiens, HL-60
# [32] = tested on: CCRF-CEM; experiment: panel of 60 human tumor cell lines, growth inhibition (Leukemia); conditions: Homo sapiens
# [33] = tested on: K-562; experiment: as above; conditions: Homo sapiens, K562
# [34] = tested on: MOLT-4; experiment: as above; conditions: Homo sapiens, MOLT-4
# [35] = tested on: SR; experiment: as above; conditions: Homo sapiens
# [36] = tested on: LOX IMVI; experiment: panel of 60 human tumor cell lines, growth inhibition (Melanoma); conditions: Homo sapiens, 5-dose assay
# [37] = tested on: MALME-3M; experiment: as above; conditions: Homo sapiens, Malme-3M
# [38] = tested on: M14; experiment: as above; conditions: Homo sapiens, M14
# [39] = tested on: MDA-MB-435; experiment: as above; conditions: Homo sapiens, MDA-MB-435
# [40] = tested on: RPMI-8226; experiment: panel of 60 human tumor cell lines, growth inhibition (Leukemia); conditions: Homo sapiens, RPMI-8226
# [41] = tested on: SF-539; experiment: panel of 60 human tumor cell lines, growth inhibition (CNS Cancer); conditions: Homo sapiens, SF-539
# [42] = tested on: SNB-75; experiment: as above; conditions: Homo sapiens, SNB-75
# [43] = tested on: COLO 205; experiment: panel of 60 human tumor cell lines, growth inhibition (Colon Cancer); conditions: Homo sapiens, COLO 205
# [44] = tested on: HCT-116; experiment: as above; conditions: Homo sapiens, HCT-116, HCT-116; 5-dose assay
# [45] = tested on: SW-620; experiment: as above; conditions: Homo sapiens, SW-620, SW-620; 5-dose assay
# [46] = tested on: ACHN; experiment: panel of 60 human tumor cell lines, growth inhibition (Renal Cancer); conditions: Homo sapiens
# [47] = tested on: CAKI-1; experiment: as above; conditions: Homo sapiens, CAKI-1
# [48] = tested on: RXF 393; experiment: as above; conditions: Homo sapiens, RXF 393, RXF 393; 5-dose assay
# [49] = tested on: TK-10; experiment: as above; conditions: Homo sapiens, TK-10, TK-10; 5-dose assay
# [50] = tested on: MCF7; experiment: panel of 60 human tumor cell lines, growth inhibition (Breast Cancer); conditions: Homo sapiens, MCF7, MCF7; 5-dose assay
# [51] = tested on: BT-549; experiment: as above; conditions: Homo sapiens, BT-549
# [52] = tested on: T-47D; experiment: as above; conditions: Homo sapiens, T47D
# [53] = tested on: MDA-MB-468; experiment: as above; conditions: Homo sapiens, MDA-MB-468
# [54] = tested on: IGROV1; experiment: panel of 60 human tumor cell lines, growth inhibition (Ovarian Cancer); conditions: Homo sapiens, IGROV-1
# [55] = tested on: OVCAR-3; experiment: as above; conditions: Homo sapiens, OVCAR-3
# [56] = tested on: DU-145; experiment: panel of 60 human tumor cell lines, growth inhibition (Prostate Cancer); conditions: Homo sapiens, DU-145
# [57] = tested on: HOP-92; experiment: panel of 60 human tumor cell lines, growth inhibition (Non-Small Cell Lung Cancer); conditions: Homo sapiens, HOP-92, HOP-92; 5-dose assay
# [58] = tested on: NCI-H522; experiment: as above; conditions: Homo sapiens, NCI-H522
# [59] = tested on: AML 052308 cells; experiment: cells; conditions: read-out: LC50
# Source text: as §1
smiles,measurement,setting,value
C=C1C(=O)O[C@H]2[C@H]1CC/C(COC(=O)CCN1CCCCC1)=C\CC[C@@]1(C)O[C@@H]21 [JVM 88],antileukemic activity compared to MMB,[1],good antileukemic activity compared to MMB
same,antileukemic activity compared to MMB,[2],good antileukemic activity compared to MMB
same,antileukemic activity compared to MMB,[3],good antileukemic activity compared to MMB
C=C1C(=O)O[C@H]2[C@H]1CC/C(COC(=O)NCCCn1ccnc1)=C\CC[C@@]1(C)O[C@@H]21 [JVM 58],cytotoxicity compared to MMB,[4],less active than MMB
C=C1C(=O)O[C@H]2[C@H]1CC/C(COC(=O)NCc1ccccn1)=C\CC[C@@]1(C)O[C@@H]21 [JVM 74],cytotoxicity compared to MMB,[4],almost equal cytotoxicity to MMB
"C=C1C(=O)O[C@H]2[C@H]1CC/C(COC(=O)NCCCn1ccnc1)=C\CC[C@@]1(C)O[C@@H]21 [6f, ((1aR,7aS,10aS,10bS,E)-1a-methyl-8-methylene-9-oxo-1a,2,3,6,7,7a,8,9,10a,10b-decahydrooxireno[2′,3′:9,10]cyclodeca[1,2-b]furan-5-yl)methyl-(3-(1H-imidazol-1-yl)-propyl)carbamate]",melting point,,70 °C
"C/C1=C\CC[C@@]2(C)O[C@@H]2[C@H]2OC(=O)[C@H](CN(C)C)[C@@H]2CC1 [DMAPT, dimethylaminoparthenolide]",GI50,[5],1.99 µM
same,GI50,[6],1.58 µM
same,GI50,[7],2.51 µM
same,GI50,[8],3.16 µM
same,GI50,[9],10 µM
same,GI50,[10],2.51 µM
same,GI50,[11],31.6 µM
same,GI50,[12],5.01 µM
same,GI50,[13],3.98 µM
same,GI50,[14],2.51 µM
same,GI50,[15],10 µM
same,GI50,[16],15.8 µM
same,GI50,[17],7.94 µM
same,GI50,[18],19.9 µM
same,GI50,[19],12.5 µM
same,GI50,[20],15.8 µM
same,GI50,[21],12.5 µM
same,GI50,[22],15.8 µM
same,GI50,[23],3.16 µM
same,GI50,[24],5.01 µM
same,GI50,[25],5.01 µM
same,GI50,[26],5.01 µM
same,GI50,[27],39.8 µM
same,GI50,[28],2.51 µM
"C=C1C(=O)O[C@H]2[C@H]1CC/C(COC(=O)N1CCC(F)(F)CC1)=C\CC[C@@]1(C)O[C@@H]21 [6a, ((1aR,7aS,10aS,10bS,E)-1a-methyl-8-methylene-9-oxo-1a,2,3,6,7,7a,8,9,10a,10b-decahydrooxireno[2′,3′:9,10]cyclodeca[1,2-b]furan-5-yl)methyl-4,4-difluoropiperidine-1-carboxylate]",GI50,[29]; sub-panel breast cancer,0.57 to 3.07 µM
same,GI50,[29]; sub-panel colon cancer,1.12 to 2.06 µM
same,GI50,[29]; sub-panel melanoma,0.46 to 2.84 µM
same,GI50,[29]; sub-panel non-small cell lung cancer,0.65 to 1.45 µM
same,GI50,[29]; sub-panel renal cancer,0.9 to 2.6 µM
same,half-life,[30],8 h
same,melting point,,150 °C
same,GI50,[31],2.04 µM
same,GI50,[32]; 5-dose assay,0.68 µM
same,GI50,[32]; leukemia cell line CCRF-CEM,0.68 µM
same,GI50,[33],3.45 µM
same,GI50,[34],2.05 µM
same,GI50,[35],1.38 µM
same,GI50,[36],2.23 µM
same,GI50,[37],1.9 µM
same,GI50,[38],2.84 µM
same,GI50,[39],0.46 µM
same,GI50,[40],1.98 µM
same,GI50,[41],1.98 µM
same,GI50,[42],6.13 µM
same,GI50,[43],2.06 µM
same,GI50,[44],1.41 µM
same,GI50,[45],1.46 µM
same,GI50,[46],1.79 µM
same,GI50,[47],2.03 µM
same,GI50,[48],1.2 µM
same,GI50,[49],2.6 µM
same,GI50,[50],1.62 µM
same,GI50,[51],2.69 µM
same,GI50,[52],3.07 µM
same,GI50,[53],0.57 µM
same,GI50,[54],2.31 µM
same,GI50,[55],1.69 µM
same,GI50,[56],2.44 µM
same,GI50,[57],1.45 µM
same,GI50,[58],1.25 µM
"C=C1C(=O)OC2C1CC/C(CO)=C\CCC1(C)OC21 (centres unmarked) [MMB, Melampomagnolide B]",CC50,[59],16 µM
"C=C1C(=O)O[C@H]2[C@H]1CC/C(COC(=O)NCCCN1CCOCC1)=C\CC[C@@]1(C)O[C@@H]21 [6g, ((1aR,7aS,10aS,10bS,E)-1a-methyl-8-methylene-9-oxo-1a,2,3,6,7,7a,8,9,10a,10b-decahydrooxireno[2′,3′:9,10]-cyclodeca[1,2-b]furan-5-yl)methyl-(3-morpholinopropyl)carbamate]",melting point,,60 °C
